{"source": "patent US10414811B2", "about": "“Protease-resistant lipidated GLP-1 analogs” (MEDIMMUNE LIMITED, priority 2015, dated 2019)", "assay_type_in_all_cases": "cell-based", "key": {"[1]": {"target": "T1, human glucagon receptor (GCGR) (Homo sapiens, UniProt P47871)", "T1 construct": "expressed in transfected cells", "T1 sequence (P47871 26-477)": "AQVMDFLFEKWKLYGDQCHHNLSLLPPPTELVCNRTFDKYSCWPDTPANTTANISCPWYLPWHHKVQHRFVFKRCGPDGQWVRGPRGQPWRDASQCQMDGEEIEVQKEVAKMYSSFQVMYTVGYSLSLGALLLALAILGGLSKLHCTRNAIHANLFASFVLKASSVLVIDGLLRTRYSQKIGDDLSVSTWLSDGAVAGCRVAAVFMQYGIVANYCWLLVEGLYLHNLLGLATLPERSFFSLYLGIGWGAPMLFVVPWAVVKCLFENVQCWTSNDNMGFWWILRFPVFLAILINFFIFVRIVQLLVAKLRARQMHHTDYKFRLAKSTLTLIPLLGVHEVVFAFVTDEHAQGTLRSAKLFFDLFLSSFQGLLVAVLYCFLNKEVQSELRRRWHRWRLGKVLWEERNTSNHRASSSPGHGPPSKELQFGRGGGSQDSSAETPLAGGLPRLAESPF", "experiment": "cAMP assay, human GCGR cells", "conditions": "cAMP assay", "method_in_brief": "(§1)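 Peptide-stimulated cAMP measured by two-step HTRF after a 30 min room-temperature incubation with receptor-expressing cells (hGLP-1R, hGIPR at 1×10^5 cells/ml; hGCGR at 2×10^5 cells/ml). Duplicate dilutions; EC50 from 4-parameter logistic fit of % Delta F.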"}, "[2]": {"target": "T2, GLP-1R (INS1e assay) (Rattus norvegicus, UniProt P32301)", "T2 construct": "endogenous in cells; host or cells: INS-1E cells", "T2 sequence (P32301 22-463)": "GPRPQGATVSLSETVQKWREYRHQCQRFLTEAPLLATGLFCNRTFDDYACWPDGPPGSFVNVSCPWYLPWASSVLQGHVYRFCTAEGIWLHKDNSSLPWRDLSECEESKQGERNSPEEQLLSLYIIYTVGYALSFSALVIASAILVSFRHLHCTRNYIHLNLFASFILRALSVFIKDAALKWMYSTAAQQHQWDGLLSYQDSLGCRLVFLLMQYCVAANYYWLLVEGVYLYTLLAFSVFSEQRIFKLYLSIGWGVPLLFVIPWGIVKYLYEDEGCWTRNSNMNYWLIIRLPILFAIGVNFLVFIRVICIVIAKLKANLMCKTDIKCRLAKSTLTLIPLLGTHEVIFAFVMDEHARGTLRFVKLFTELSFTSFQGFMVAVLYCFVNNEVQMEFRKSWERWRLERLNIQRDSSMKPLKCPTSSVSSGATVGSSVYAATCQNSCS", "experiment": "INS1e assay, cAMP activity at GLP-1R", "conditions": "mono-lipidated peptides; for EC50: mean of n1 and n2, read-out: INS1e assay EC50 Mean pM GLP-1R", "method_in_brief": "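It pairs cAMP-d2 acceptor with anti-cAMP cryptate donor, both prepared 1/20 in conjugate/lysis buffer, applied as a two-step protocol.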"}, "[3]": {"target": "T3, human glucose-dependent insulinotropic peptide receptor (GIPR) (Homo sapiens, UniProt P48546)", "T3 construct": "expressed in transfected cells", "T3 sequence (P48546 22-466)": "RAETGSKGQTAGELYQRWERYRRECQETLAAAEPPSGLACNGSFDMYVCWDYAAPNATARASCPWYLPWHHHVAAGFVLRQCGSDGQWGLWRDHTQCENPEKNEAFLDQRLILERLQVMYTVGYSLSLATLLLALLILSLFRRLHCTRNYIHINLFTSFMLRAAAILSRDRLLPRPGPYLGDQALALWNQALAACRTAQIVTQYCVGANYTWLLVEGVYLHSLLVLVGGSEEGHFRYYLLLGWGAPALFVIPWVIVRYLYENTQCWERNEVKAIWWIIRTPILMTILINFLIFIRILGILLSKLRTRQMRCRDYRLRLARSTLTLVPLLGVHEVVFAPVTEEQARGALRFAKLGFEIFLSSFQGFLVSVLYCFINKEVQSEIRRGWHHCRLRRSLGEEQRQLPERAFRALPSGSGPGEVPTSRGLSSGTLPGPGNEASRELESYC", "experiment": "cAMP assay, human GIPR cells", "conditions": "cAMP assay", "method_in_brief": "as §1"}, "[4]": {"target": "T4, human GLP-1 receptor (GLP-1R) (Homo sapiens, UniProt P43220)", "T4 construct": "expressed in transfected cells", "T4 sequence (P43220 24-463)": "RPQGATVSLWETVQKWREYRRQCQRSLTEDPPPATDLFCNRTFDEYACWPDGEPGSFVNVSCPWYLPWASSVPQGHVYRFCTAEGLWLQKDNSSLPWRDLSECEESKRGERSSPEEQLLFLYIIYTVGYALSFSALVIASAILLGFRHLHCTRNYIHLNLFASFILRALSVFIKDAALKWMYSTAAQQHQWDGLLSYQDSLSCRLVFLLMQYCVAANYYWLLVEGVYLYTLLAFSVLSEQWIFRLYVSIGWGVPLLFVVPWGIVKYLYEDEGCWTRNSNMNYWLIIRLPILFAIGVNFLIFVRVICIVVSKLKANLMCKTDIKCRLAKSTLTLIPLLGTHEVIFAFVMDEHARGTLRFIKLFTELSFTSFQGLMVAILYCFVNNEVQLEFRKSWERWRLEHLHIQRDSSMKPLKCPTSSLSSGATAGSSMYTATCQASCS", "experiment": "cAMP assay, human GLP-1R cells", "conditions": "for pEC50: cAMP assay; for EC50: mean of n1 and n2, read-out: Mean pM GLP-1R", "method_in_brief": "as §1"}, "[5]": {"conditions": "first determination (n1), read-out: Primary assay EC50 Gluc-R (n1)"}, "[6]": {"conditions": "second determination (n2), read-out: Primary assay EC50 Gluc-R (n2)"}, "[7]": {"conditions": "replicate n1, read-out: INS1e assay EC50 GLP-1R n1"}, "[8]": {"conditions": "replicate n2, read-out: INS1e assay EC50 GLP-1R n2"}, "[9]": {"conditions": "first determination (n1), read-out: Primary assay EC50 GIP-R (n1)"}, "[10]": {"conditions": "second determination (n2), read-out: Primary assay EC50 GIP-R (n2)"}, "[11]": {"conditions": "first determination (n1), read-out: Primary assay EC50 GLP-1R n1"}, "[12]": {"conditions": "second determination (n2), read-out: Primary assay EC50 GLP-1R n2"}}, "note": "pEC50: −log10 of the molar value. Like-named read-outs stand apart in the source and are kept apart here. Square brackets hold non-standard residues; d marks the D form. Peptide text beside a SMILES is read from it. αMeF = C[C@](N)(Cc1ccccc1)C(=O)O; αMeK = C[C@](N)(CCCCN)C(=O)O; αMeS = C[C@](N)(CO)C(=O)O; Aib = CC(C)(N)C(=O)O"}
{"smiles": "CC[C@H](C)[C@H](NC(=O)[C@H](Cc1ccccc1)NC(=O)[C@H](CCC(=O)O)NC(=O)[C@H](CCCCN)NC(=O)[C@H](C)NC(=O)[C@H](C)NC(=O)[C@H](CCC(N)=O)NC(=O)CNC(=O)[C@H](CCC(=O)O)NC(=O)[C@H](CC(C)C)NC(=O)[C@H](Cc1ccc(O)cc1)NC(=O)[C@H](CO)NC(=O)[C@H](CO)NC(=O)[C@@H](NC(=O)[C@H](CC(=O)O)NC(=O)[C@H](CO)NC(=O)[C@@H](NC(=O)[C@H](Cc1ccccc1)NC(=O)[C@@H](NC(=O)CNC(=O)[C@H](CCC(=O)O)NC(=O)C(C)(C)NC(=O)[C@@H](N)Cc1c[nH]cn1)[C@@H](C)O)[C@@H](C)O)C(C)C)C(=O)N[C@@H](C)C(=O)N[C@@H](Cc1c[nH]c2ccccc12)C(=O)N[C@@H](CC(C)C)C(=O)N[C@H](C(=O)N[C@@H](CCCCN)C(=O)NCC(=O)N[C@@H](CCCNC(=N)N)C(=O)N[C@@H](CCCCNC(=O)COCCOCCNC(=O)COCCOCCNC(=O)CC[C@H](NC(=O)CCCCCCCCCCCCCCCCC(=O)O)C(=O)O)C(N)=O)C(C)C", "note": "[compound 6]", "values": [{"measurement": "pEC50", "setting": "[1]; [5]", "value": "≤ 7.66"}, {"measurement": "pEC50", "setting": "[1]; [6]", "value": "≤ 7.66"}, {"measurement": "EC50", "setting": "[2]", "value": 122, "unit": "pM"}, {"measurement": "pEC50", "setting": "[2]; [7]", "value": 9.98}, {"measurement": "pEC50", "setting": "[2]; [8]", "value": 9.86}, {"measurement": "pEC50", "setting": "[3]; [9]", "value": "≤ 7.66"}, {"measurement": "pEC50", "setting": "[3]; [10]", "value": "≤ 7.66"}, {"measurement": "pEC50", "setting": "[4]; [11]", "value": 11.32}]}
{"smiles": "CC[C@H](C)[C@H](NC(=O)[C@](C)(Cc1ccccc1)NC(=O)[C@H](CCC(=O)O)NC(=O)[C@H](CCC(=O)O)NC(=O)[C@H](C)NC(=O)[C@H](C)NC(=O)[C@H](CCC(=O)O)NC(=O)CNC(=O)[C@H](CCC(=O)O)NC(=O)[C@H](CC(C)C)NC(=O)[C@](C)(Cc1ccccc1)NC(=O)[C@H](CO)NC(=O)[C@](C)(CO)NC(=O)[C@@H](NC(=O)[C@H](CC(=O)O)NC(=O)[C@H](CO)NC(=O)[C@@H](NC(=O)[C@](C)(Cc1ccccc1)NC(=O)[C@H](CO)NC(=O)CNC(=O)[C@H](CCC(=O)O)NC(=O)C(C)(C)NC(=O)[C@@H](N)Cc1c[nH]cn1)[C@@H](C)O)C(C)C)C(=O)N[C@@H](C)C(=O)N[C@@](C)(Cc1ccccc1)C(=O)N[C@H](C(=O)N[C@H](C(=O)N[C@@](C)(CCCCN)C(=O)NCC(=O)NCC(N)=O)C(C)C)C(C)C", "note": "[compound 42] (H-H[Aib]EGS[αMeF]TSDV[αMeS]S[αMeF]LEGEAAEE[αMeF]IA[αMeF]VV[αMeK]GG-NH2)", "values": [{"measurement": "pEC50", "setting": "[1]; [5]", "value": "≤ 7.51"}, {"measurement": "pEC50", "setting": "[1]; [6]", "value": "≤ 7.51"}, {"measurement": "EC50", "setting": "[2]", "value": 187, "unit": "pM"}, {"measurement": "pEC50", "setting": "[2]; [7]", "value": 9.68}, {"measurement": "pEC50", "setting": "[2]; [8]", "value": 9.78}, {"measurement": "pEC50", "setting": "[3]; [9]", "value": "≤ 7.51"}, {"measurement": "pEC50", "setting": "[3]; [10]", "value": "≤ 7.51"}, {"measurement": "pEC50", "setting": "[4]; [11]", "value": 11.16}, {"measurement": "pEC50", "setting": "[4]; [12]", "value": 10.96}, {"measurement": "EC50", "setting": "[4]", "value": 8.7, "unit": "pM"}]}
{"smiles": "CC[C@H](C)[C@H](NC(=O)[C@](C)(Cc1ccccc1)NC(=O)[C@H](CCC(=O)O)NC(=O)[C@H](CCCCNC(=O)COCCOCCNC(=O)COCCOCCNC(=O)CC[C@H](NC(=O)CCCCCCCCCCCCCCCCC(=O)O)C(=O)O)NC(=O)[C@H](C)NC(=O)[C@H](C)NC(=O)[C@H](CCC(=O)O)NC(=O)CNC(=O)[C@H](CCC(=O)O)NC(=O)[C@H](CC(C)C)NC(=O)[C@](C)(Cc1ccccc1)NC(=O)[C@H](CO)NC(=O)[C@](C)(CO)NC(=O)[C@@H](NC(=O)[C@H](CC(=O)O)NC(=O)[C@H](CO)NC(=O)[C@@H](NC(=O)[C@H](Cc1ccccc1)NC(=O)[C@H](CO)NC(=O)CNC(=O)[C@H](CCC(=O)O)NC(=O)C(C)(C)NC(=O)[C@@H](N)Cc1c[nH]cn1)[C@@H](C)O)C(C)C)C(=O)N[C@@H](C)C(=O)N[C@@](C)(Cc1ccccc1)C(=O)N[C@H](C(=O)N[C@H](C(=O)N[C@@](C)(CCCCN)C(=O)NCC(=O)NCC(N)=O)C(C)C)C(C)C", "note": "[compound 45]", "values": [{"measurement": "pEC50", "setting": "[1]; [5]", "value": "≤ 7.59"}, {"measurement": "pEC50", "setting": "[1]; [6]", "value": "≤ 7.59"}, {"measurement": "EC50", "setting": "[2]", "value": 94600, "unit": "pM"}, {"measurement": "pEC50", "setting": "[2]; [7]", "value": 7.12}, {"measurement": "pEC50", "setting": "[2]; [8]", "value": 6.95}, {"measurement": "pEC50", "setting": "[3]; [9]", "value": "≤ 7.59"}, {"measurement": "pEC50", "setting": "[3]; [10]", "value": "≤ 7.59"}, {"measurement": "pEC50", "setting": "[4]; [11]", "value": 8.42}, {"measurement": "pEC50", "setting": "[4]; [12]", "value": 8.48}, {"measurement": "EC50", "setting": "[4]", "value": 3560, "unit": "pM"}]}
